Molecules are shown by their SMILES.

Experimental findings from patent US9708314B2, “Heterocyclic amide compound” (NISSAN CHEMICAL INDUSTRIES, LTD., priority 2013, dated 2017) are described below.

Common to all, as to assay type: in vivo
For series [1], the system named is Stellaria media. Put plainly: Test Example 4: herbicidal effect by application to foliage (diluvial soil, plastic box). To be noted: for P (Stellaria media) herbicidal effect: application to foliage, application herbicide amount 320 g/ha. The method in brief:
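Plants were grown in sterilized diluvial soil in a greenhouse at 25-30° C for 14 days, then sprayed on stems and leaves with water-diluted emulsion formulation at set rates in g/ha. Weed control and crop injury were scored 3 weeks after treatment on a 0-5 herbicidal-ratio scale, from 0 (≤5%) to 5 (≥90%).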

In series [2] the test system is Leptochloa chinensis. The series can be described thus: Test Example 3: herbicidal effect by application to foliage (Wagner pot, water depth 0.1-0.5 cm). Conditions: Nineteenth Table; for D (Leptochloa chinensis) herbicidal ratio grade: application herbicide amount 320 g/ha. Summed up:
(§1)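 Scores (0–5) reflect herbicidal ratio three weeks after a foliar spray: 0 is 5% or less, 5 is 90% or more. Plants had grown 14 days in alluvial soil pots in a 25–30 °C greenhouse before treatment with water-diluted emulsion at a set g/ha.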

Series [3] has as its system Echinochloa crus-galli var. crus-galli. The series is described as above. Conditions: Nineteenth Table; for H (Echinochloa crus-galli var. crus-galli) herbicidal ratio grade: application herbicide amount 320 g/ha. Summed up:
as §1

In series [4] the test system is Cyperus difformis. Described as above. To be noted: Nineteenth Table; for E (Cyperus difformis) herbicidal ratio grade: application herbicide amount 320 g/ha. The method in brief: as §1
For series [5], the system named is directly sowed Oryza sativa. The series can be described thus: Test Example 3: effect on crop by application to foliage (Wagner pot, water depth 0.1-0.5 cm). Conditions: Nineteenth Table; for b (directly sowed Oryza sativa) effect on crop grade: application herbicide amount 320 g/ha. The method in brief: as §1
Series [6] deals with transplanted Oryza sativa. The series can be described thus: Test Example 1: effect on crop, application before weed generation in submerged conditions. Conditions: Seventeenth Table. Summed up: (§2)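 Pre-emergence application to water surface of submerged pots (4 cm depth, alluvial soil) on sowing day, with 2.5-leaf rice transplanted; emulsion diluted to g/ha rates. Grown in greenhouse at 25–30 °C; 0–5 herbicidal/crop-effect score after three weeks.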

In series [7] the test system is Monochoria vaginalis. The series can be described thus: Test Example 1: herbicidal activity, application before weed generation in submerged conditions. To be noted: Seventeenth Table. The method in brief: as §2
The subject of series [8] is Echinochloa oryzacola Vasing. The series is described as above. To be noted: Seventeenth Table. Summed up: as §2
The subject of series [9] is Scirpus juncoides. The description is as above. To be noted: Seventeenth Table. The method in brief: as §2
The mark [10] stands for this setting: Application herbicide amount 320 g/ha.
The mark [11] stands for this setting: application to foliage, application herbicide amount 288 g/ha.
The mark [12] stands for this setting: Application herbicide amount 288 g/ha.

Turning to `COCc1nnc2c(C(=O)Nc3nnc(C)o3)ccc(C(F)(F)F)n12` [1-015], the “P (Stellaria media) herbicidal effect” value in series [1] was 5 (Herbicidal ratio of 90% or more (almost completely withered)). Also, in series [2], the “D (Leptochloa chinensis) herbicidal ratio grade” value was 5 (Herbicidal ratio of 90% or more (almost completely withered)). Besides, the “H (Echinochloa crus-galli var. crus-galli) herbicidal ratio grade” value in series [3] was 5 (Herbicidal ratio of 90% or more (almost completely withered)). Further, the “E (Cyperus difformis) herbicidal ratio grade” value in series [4] was 4 (Herbicidal ratio of 70% or more and less than 90%). For the same molecule, the “b (directly sowed Oryza sativa) effect on crop grade” value in series [5] was 1 (Herbicidal ratio of 5% or more and less than 20%). Besides, in series [6] (setting [10]), the “a: transplanted Oryza sativa (effect on crop grade)” value (“a: transplanted Oryza sativa” for short) is listed as 0 (Herbicidal ratio of 5% or less (almost no effect)). Besides, in series [7] (setting [10]), the “C: Monochoria vaginalis (herbicidal effect grade)” value (shortened to “C: Monochoria vaginalis”) was 3 (Herbicidal ratio of 40% or more and less than 70%). Besides, the “A: Echinochloa oryzicola Vasing. (herbicidal effect grade)” value in series [8] (setting [10]) is 2 (Herbicidal ratio of 20% or more and less than 40%). Moreover, the “B: Scirpus juncoides (herbicidal effect grade)” value (from here on “B: Scirpus juncoides”) in series [9] (setting [10]) was 3 (Herbicidal ratio of 40% or more and less than 70%).

For `Cc1nnc(NC(=O)c2ccc(C(F)(F)F)n3c([S+]([O-])C(C)C)nnc23)o1` (stereo not drawn) [1-035], in series [1], the “P (Stellaria media) herbicidal effect” value was 5 (Herbicidal ratio of 90% or more (almost completely withered)). Besides, the “D (Leptochloa chinensis) herbicidal ratio grade” value in [2] is 5 (Herbicidal ratio of 90% or more (almost completely withered)). Also, the “H (Echinochloa crus-galli var. crus-galli) herbicidal ratio grade” value in [3] was 5 (Herbicidal ratio of 90% or more (almost completely withered)). The “E (Cyperus difformis) herbicidal ratio grade” value in series [4] is 5 (Herbicidal ratio of 90% or more (almost completely withered)). In addition, the “b (directly sowed Oryza sativa) effect on crop grade” value in series [5] is 4 (Herbicidal ratio of 70% or more and less than 90%). The “a: transplanted Oryza sativa” value in series [6] (setting [10]) was 2 (Herbicidal ratio of 20% or more and less than 40%). Besides, the “C: Monochoria vaginalis” value in [7] (setting [10]) is 4 (Herbicidal ratio of 70% or more and less than 90%). The “A: Echinochloa oryzicola Vasing. (herbicidal effect grade)” value in series [8] (setting [10]) is given as 5 (Herbicidal ratio of 90% or more (almost completely withered)). In addition, the “B: Scirpus juncoides” value in series [9] (setting [10]) was 4 (Herbicidal ratio of 70% or more and less than 90%).

Turning to `C=CCSc1nnc2c(C(=O)Nc3nnco3)ccc(C(F)(F)F)n12` [1-128], in [1] (Application herbicide amount 288 g/ha, foliage application), the “P (Stellaria media) herbicidal effect grade” value is listed as 5 (Herbicidal ratio of 90% or more (almost completely withered)). Besides, in series [2] (setting [11]), the “D (herbicidal effect grade)” value is 3 (Herbicidal ratio of 40% or more and less than 70%). Moreover, the “H (herbicidal effect grade)” value in [3] (setting [11]) was 4 (Herbicidal ratio of 70% or more and less than 90%). Further, in series [4] (setting [11]), the “E (herbicidal effect grade)” value was 3 (Herbicidal ratio of 40% or more and less than 70%). For the same molecule, the “b (effect on crop grade)” value in [5] (setting [11]) is 0 (Herbicidal ratio of 5% or less (almost no effect)). For the same molecule, the “a: transplanted Oryza sativa” value in [6] (setting [12]) is listed as 0 (Herbicidal ratio of 5% or less (almost no effect)). The “C: Monochoria vaginalis” value in series [7] (setting [12]) is 2 (Herbicidal ratio of 20% or more and less than 40%). For the same molecule, the “A: Echinochloa oryzicola Vasing. (herbicidal effect grade)” value in [8] (setting [12]) was 5 (Herbicidal ratio of 90% or more (almost completely withered)). In addition, the “B: Scirpus juncoides” value in series [9] (setting [12]) was 4 (Herbicidal ratio of 70% or more and less than 90%).

Turning to `CCCc1nnc2c(C(=O)Nc3nnc(C)o3)ccc(C(F)(F)F)n12` [1-024], the “P (Stellaria media) herbicidal effect” value in series [1] is 4 (Herbicidal ratio of 70% or more and less than 90%). For the same molecule, in [2], the “D (Leptochloa chinensis) herbicidal ratio grade” value is 4 (Herbicidal ratio of 70% or more and less than 90%). The “H (Echinochloa crus-galli var. crus-galli) herbicidal ratio grade” value in series [3] is on record as 5 (Herbicidal ratio of 90% or more (almost completely withered)). In series [4], the “E (Cyperus difformis) herbicidal ratio grade” value was 4 (Herbicidal ratio of 70% or more and less than 90%). The “b (directly sowed Oryza sativa) effect on crop grade” value in series [5] was 2 (Herbicidal ratio of 20% or more and less than 40%). For the same molecule, the “a: transplanted Oryza sativa” value in series [6] (setting [10]) is listed as 0 (Herbicidal ratio of 5% or less (almost no effect)). Moreover, in series [7] (setting [10]), the “C: Monochoria vaginalis” value is on record as 0 (Herbicidal ratio of 5% or less (almost no effect)). For the same molecule, the “A: Echinochloa oryzicola Vasing. (herbicidal effect grade)” value in [8] (setting [10]) was 5 (Herbicidal ratio of 90% or more (almost completely withered)). For the same molecule, in series [9] (setting [10]), the “B: Scirpus juncoides” value was 2 (Herbicidal ratio of 20% or more and less than 40%).

Regarding `Cc1nnc(NC(=O)c2ccc(C(F)(F)F)n3c(C4CCCC4)nnc23)o1` [1-026], the “P (Stellaria media) herbicidal effect” value in series [1] is listed as 5 (Herbicidal ratio of 90% or more (almost completely withered)). The “D (Leptochloa chinensis) herbicidal ratio grade” value in [2] was 4 (Herbicidal ratio of 70% or more and less than 90%). Moreover, in [3], the “H (Echinochloa crus-galli var. crus-galli) herbicidal ratio grade” value is 5 (Herbicidal ratio of 90% or more (almost completely withered)). Further, the “E (Cyperus difformis) herbicidal ratio grade” value in series [4] is 4 (Herbicidal ratio of 70% or more and less than 90%). Further, in series [5], the “b (directly sowed Oryza sativa) effect on crop grade” value is 4 (Herbicidal ratio of 70% or more and less than 90%). In addition, the “a: transplanted Oryza sativa” value in series [6] (setting [10]) is 2 (Herbicidal ratio of 20% or more and less than 40%). Further, the “C: Monochoria vaginalis” value in [7] (setting [10]) was 4 (Herbicidal ratio of 70% or more and less than 90%). Further, in series [8] (setting [10]), the “A: Echinochloa oryzicola Vasing. (herbicidal effect grade)” value is 5 (Herbicidal ratio of 90% or more (almost completely withered)). Besides, the “B: Scirpus juncoides” value in [9] (setting [10]) was 4 (Herbicidal ratio of 70% or more and less than 90%).

Regarding `Cc1nnc(NC(=O)c2ccc(C(F)(F)F)n3c(S(C)(=O)=O)nnc23)o1` [1-040], in [1], the “P (Stellaria media) herbicidal effect” value is 5 (Herbicidal ratio of 90% or more (almost completely withered)). Further, in [2], the “D (Leptochloa chinensis) herbicidal ratio grade” value is 5 (Herbicidal ratio of 90% or more (almost completely withered)). For the same molecule, in [3], the “H (Echinochloa crus-galli var. crus-galli) herbicidal ratio grade” value was 4 (Herbicidal ratio of 70% or more and less than 90%). In addition, in [4], the “E (Cyperus difformis) herbicidal ratio grade” value is 4 (Herbicidal ratio of 70% or more and less than 90%). The “b (directly sowed Oryza sativa) effect on crop grade” value in series [5] was 3 (Herbicidal ratio of 40% or more and less than 70%). Also, the “a: transplanted Oryza sativa” value in series [6] (setting [10]) was 1 (Herbicidal ratio of 5% or more and less than 20%). For the same molecule, the “C: Monochoria vaginalis” value in series [7] (setting [10]) is 3 (Herbicidal ratio of 40% or more and less than 70%). In series [8] (setting [10]), the “A: Echinochloa oryzicola Vasing. (herbicidal effect grade)” value was 3 (Herbicidal ratio of 40% or more and less than 70%). Besides, the “B: Scirpus juncoides” value in series [9] (setting [10]) was 3 (Herbicidal ratio of 40% or more and less than 70%).

As for `CCOCc1nnc2c(C(=O)Nc3nnc(C)o3)ccc(C(F)(F)F)n12` [1-027], the “P (Stellaria media) herbicidal effect” value in series [1] is on record as 5 (Herbicidal ratio of 90% or more (almost completely withered)). Moreover, the “D (Leptochloa chinensis) herbicidal ratio grade” value in series [2] is listed as 5 (Herbicidal ratio of 90% or more (almost completely withered)). In series [3], the “H (Echinochloa crus-galli var. crus-galli) herbicidal ratio grade” value is reported as 5 (Herbicidal ratio of 90% or more (almost completely withered)). In series [4], the “E (Cyperus difformis) herbicidal ratio grade” value was 5 (Herbicidal ratio of 90% or more (almost completely withered)). The “b (directly sowed Oryza sativa) effect on crop grade” value in series [5] was 3 (Herbicidal ratio of 40% or more and less than 70%). Further, the “a: transplanted Oryza sativa” value in series [6] (setting [10]) is 1 (Herbicidal ratio of 5% or more and less than 20%). The “C: Monochoria vaginalis” value in [7] (setting [10]) was 4 (Herbicidal ratio of 70% or more and less than 90%). Also, in [8] (setting [10]), the “A: Echinochloa oryzicola Vasing. (herbicidal effect grade)” value is recorded as 5 (Herbicidal ratio of 90% or more (almost completely withered)). Besides, the “B: Scirpus juncoides” value in series [9] (setting [10]) is 3 (Herbicidal ratio of 40% or more and less than 70%).

`CC(C)c1nnc2c(C(=O)Nc3nnco3)ccc(C(F)(F)F)n12` [1-050]: the “P (Stellaria media) herbicidal effect” value in series [1] is 5 (Herbicidal ratio of 90% or more (almost completely withered)). In addition, the “D (Leptochloa chinensis) herbicidal ratio grade” value in [2] is reported as 5 (Herbicidal ratio of 90% or more (almost completely withered)). Further, the “H (Echinochloa crus-galli var. crus-galli) herbicidal ratio grade” value in series [3] is listed as 5 (Herbicidal ratio of 90% or more (almost completely withered)). For the same molecule, the “E (Cyperus difformis) herbicidal ratio grade” value in series [4] is on record as 5 (Herbicidal ratio of 90% or more (almost completely withered)). Also, the “b (directly sowed Oryza sativa) effect on crop grade” value in series [5] is 1 (Herbicidal ratio of 5% or more and less than 20%). Moreover, the “a: transplanted Oryza sativa” value in series [6] (setting [10]) was 2 (Herbicidal ratio of 20% or more and less than 40%). The “C: Monochoria vaginalis” value in series [7] (setting [10]) is 4 (Herbicidal ratio of 70% or more and less than 90%). Also, in series [8] (setting [10]), the “A: Echinochloa oryzicola Vasing. (herbicidal effect grade)” value was 5 (Herbicidal ratio of 90% or more (almost completely withered)). Moreover, the “B: Scirpus juncoides” value in series [9] (setting [10]) was 5 (Herbicidal ratio of 90% or more (almost completely withered)).
